Test results as given in paper PMC7756583, “Hydroxamic Acids Immobilized on Resins (HAIRs): Synthesis of Dual‐Targeting HDAC Inhibitors and HDAC Degraders (PROTACs)” (Angewandte Chemie (International Ed. in English), 2020).
Where “and” joins values, the source holds several entries; their conditions need not be identical. Equal entries are not always repeated. Entries after “also recorded” stand apart in the source; their conditions may differ. Where two headings read alike, the source gives them in different places.

Columns and labels:
[1] = system: human primary glioblastoma cell line U87; test: MTT cell viability assay, U87; type: cell-based; settings: 72 h, read-out: Antiproliferative Effect IC50 U87
[2] = system: human primary glioblastoma cell line U251; test: MTT cell viability assay, U251; type: cell-based; settings: for IC50: Homo sapiens, read-out: Antiproliferative Effect IC50 U251
[3] = system: human tongue squamous cell carcinoma cell line Cal27; test: MTT cell viability assay, Cal27; type: cell-based; settings: for IC50: Homo sapiens, read-out: Antiproliferative Effect IC50 Cal27
HDAC1 [4] = target: T1, HDAC1 (Homo sapiens, UniProt Q13547); test: In-vitro human HDAC1 fluorogenic inhibition assay (ZMAL substrate); type: biochemical
HDAC6 [5] = target: T2, HDAC6 (Homo sapiens, UniProt Q9UBN7); test: In-vitro human HDAC6 fluorogenic inhibition assay (ZMAL substrate); type: biochemical
T2 sequence (Q9UBN7 1-1215): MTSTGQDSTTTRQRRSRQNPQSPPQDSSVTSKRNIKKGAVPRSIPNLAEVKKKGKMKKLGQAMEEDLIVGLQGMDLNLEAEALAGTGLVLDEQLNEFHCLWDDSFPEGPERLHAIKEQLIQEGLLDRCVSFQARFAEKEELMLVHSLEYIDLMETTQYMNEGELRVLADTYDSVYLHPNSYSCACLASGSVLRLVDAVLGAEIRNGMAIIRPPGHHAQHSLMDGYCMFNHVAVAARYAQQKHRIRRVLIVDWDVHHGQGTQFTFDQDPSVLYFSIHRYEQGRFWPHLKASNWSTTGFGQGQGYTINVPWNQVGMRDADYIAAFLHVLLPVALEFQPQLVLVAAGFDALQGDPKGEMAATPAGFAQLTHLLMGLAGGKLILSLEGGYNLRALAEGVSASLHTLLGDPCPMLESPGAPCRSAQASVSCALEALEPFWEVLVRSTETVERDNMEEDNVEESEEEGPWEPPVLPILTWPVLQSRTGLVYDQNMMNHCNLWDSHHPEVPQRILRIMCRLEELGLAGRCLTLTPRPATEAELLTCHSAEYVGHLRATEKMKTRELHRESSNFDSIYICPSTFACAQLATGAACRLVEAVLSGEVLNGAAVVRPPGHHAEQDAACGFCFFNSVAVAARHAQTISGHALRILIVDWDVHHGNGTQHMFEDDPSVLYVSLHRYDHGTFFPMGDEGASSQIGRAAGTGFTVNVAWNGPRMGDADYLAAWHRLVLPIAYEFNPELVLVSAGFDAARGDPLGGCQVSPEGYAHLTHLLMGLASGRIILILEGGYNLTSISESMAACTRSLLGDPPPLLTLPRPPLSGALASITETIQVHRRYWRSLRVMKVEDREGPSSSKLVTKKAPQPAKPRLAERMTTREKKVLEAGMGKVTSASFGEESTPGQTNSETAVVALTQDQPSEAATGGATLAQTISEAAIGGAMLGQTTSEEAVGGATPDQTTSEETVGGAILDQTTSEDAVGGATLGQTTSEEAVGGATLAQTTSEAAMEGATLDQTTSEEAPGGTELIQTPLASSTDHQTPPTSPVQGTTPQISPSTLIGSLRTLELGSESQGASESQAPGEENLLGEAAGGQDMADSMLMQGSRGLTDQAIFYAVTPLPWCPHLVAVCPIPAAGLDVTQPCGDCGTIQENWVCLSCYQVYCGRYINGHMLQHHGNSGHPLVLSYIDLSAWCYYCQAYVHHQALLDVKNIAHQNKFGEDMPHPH

[6] = system: γ-H2AX formation in Cal27 cells; test: γ-H2AX expression DNA damage assay; type: cell-based, human
human recombinant HDAC3 = human recombinant HDAC3 (Homo sapiens, UniProt O15379); test: In-vitro human HDAC3 fluorogenic inhibition assay (ZMAL substrate); type: biochemical
human recombinant HDAC2 = human recombinant HDAC2 (Homo sapiens, UniProt Q92769); test: In-vitro human HDAC2 fluorogenic inhibition assay (ZMAL substrate); type: biochemical
[7] = system: caspase 3/7 activation in Cal27 cells; type: cell-based, human
Cal27 cells = type: cell-based, human
HDAC8 recombinant enzyme = target: T3, HDAC8 recombinant enzyme (Homo sapiens, UniProt Q9BY41); test: In-vitro human HDAC8 assay (Boc-Lys-(TFa)-AMC substrate); type: biochemical
T3 sequence (Q9BY41 1-377): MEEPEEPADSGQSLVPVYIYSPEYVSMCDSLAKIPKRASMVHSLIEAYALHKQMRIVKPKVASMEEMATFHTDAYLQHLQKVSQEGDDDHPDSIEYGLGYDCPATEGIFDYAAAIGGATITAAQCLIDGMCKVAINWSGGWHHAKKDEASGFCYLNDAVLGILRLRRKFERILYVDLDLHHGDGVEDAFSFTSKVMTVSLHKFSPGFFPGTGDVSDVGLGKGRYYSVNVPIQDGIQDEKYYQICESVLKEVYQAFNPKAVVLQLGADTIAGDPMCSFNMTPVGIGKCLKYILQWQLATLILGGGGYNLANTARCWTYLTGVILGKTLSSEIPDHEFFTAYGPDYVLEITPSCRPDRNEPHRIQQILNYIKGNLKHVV

[8] = system: histone H3 acetylation (marker of reduced HDAC1-3 activity); test: Immunoblot, acetyl histone H3 in HL60 cells; type: cell-based
[9] = system: α-tubulin acetylation (marker of reduced HDAC6 activity); test: Immunoblot, acetylated α-tubulin in HL60 cells; type: cell-based
HDAC1 [10] = target: T1, HDAC1; test: Immunoblot, HDAC1 degradation in HL60 cells; type: cell-based; settings: 0.1 μM, 1 μM and 10 μM, 48 hours
HDAC6 [11] = target: T2, HDAC6; test: Immunoblot, HDAC6 degradation in HL60 cells; type: cell-based; settings: 0.1 μM, 1 μM and 10 μM, 48 hours
[12] = MTT assay, n≥3, each in triplicate wells
[13] = U-251, MTT assay, 72 h, n≥3, each in triplicate wells, n.e.: no effect up to 100 μM
[14] = CAL-27, MTT assay, 72 h, n≥3, each in triplicate wells
[15] = fluorogenic assay, n≥2, each in duplicate wells, read-out: Target Inhibition IC50 HDAC1
[16] = fluorogenic assay, n≥2, each in duplicate wells, read-out: Target Inhibition IC50 HDAC6
[17] = n≥2, each in duplicate wells, read-out: HDAC Inhibition IC50 HDAC 3
[18] = n≥2, each in duplicate wells, read-out: HDAC Inhibition IC50 HDAC 2

human recombinant HDAC3, sequence (O15379 whole entry): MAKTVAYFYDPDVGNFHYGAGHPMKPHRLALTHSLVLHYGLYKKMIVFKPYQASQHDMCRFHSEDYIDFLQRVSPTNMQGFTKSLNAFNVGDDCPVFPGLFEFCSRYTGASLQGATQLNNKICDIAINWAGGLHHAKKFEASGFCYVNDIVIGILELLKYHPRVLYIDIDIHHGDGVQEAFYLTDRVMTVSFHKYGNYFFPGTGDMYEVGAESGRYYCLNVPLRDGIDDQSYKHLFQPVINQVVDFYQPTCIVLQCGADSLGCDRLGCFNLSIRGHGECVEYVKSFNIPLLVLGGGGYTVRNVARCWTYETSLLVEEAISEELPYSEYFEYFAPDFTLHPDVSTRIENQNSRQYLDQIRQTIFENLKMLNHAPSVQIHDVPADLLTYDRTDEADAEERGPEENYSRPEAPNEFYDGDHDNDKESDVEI
human recombinant HDAC3, sequence (Q9Y618 395-489 partner limits assumed): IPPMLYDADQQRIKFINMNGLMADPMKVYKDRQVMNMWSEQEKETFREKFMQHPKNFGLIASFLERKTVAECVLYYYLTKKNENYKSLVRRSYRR
human recombinant HDAC2, sequence (Q92769 whole entry): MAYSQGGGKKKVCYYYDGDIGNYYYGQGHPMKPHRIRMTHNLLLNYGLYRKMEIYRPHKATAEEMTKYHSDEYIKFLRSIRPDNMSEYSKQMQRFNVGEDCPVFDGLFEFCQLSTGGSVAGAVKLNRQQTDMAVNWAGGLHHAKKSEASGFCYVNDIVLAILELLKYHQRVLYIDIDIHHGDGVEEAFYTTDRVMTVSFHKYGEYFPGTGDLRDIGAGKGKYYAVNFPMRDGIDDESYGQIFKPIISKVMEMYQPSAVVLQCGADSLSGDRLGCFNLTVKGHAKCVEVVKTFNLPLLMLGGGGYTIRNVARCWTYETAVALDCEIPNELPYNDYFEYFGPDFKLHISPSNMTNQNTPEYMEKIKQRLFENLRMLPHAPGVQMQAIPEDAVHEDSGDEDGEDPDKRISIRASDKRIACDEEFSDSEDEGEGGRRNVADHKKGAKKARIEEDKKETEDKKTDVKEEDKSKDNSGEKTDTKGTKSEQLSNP
T1 sequence (Q13547 whole entry): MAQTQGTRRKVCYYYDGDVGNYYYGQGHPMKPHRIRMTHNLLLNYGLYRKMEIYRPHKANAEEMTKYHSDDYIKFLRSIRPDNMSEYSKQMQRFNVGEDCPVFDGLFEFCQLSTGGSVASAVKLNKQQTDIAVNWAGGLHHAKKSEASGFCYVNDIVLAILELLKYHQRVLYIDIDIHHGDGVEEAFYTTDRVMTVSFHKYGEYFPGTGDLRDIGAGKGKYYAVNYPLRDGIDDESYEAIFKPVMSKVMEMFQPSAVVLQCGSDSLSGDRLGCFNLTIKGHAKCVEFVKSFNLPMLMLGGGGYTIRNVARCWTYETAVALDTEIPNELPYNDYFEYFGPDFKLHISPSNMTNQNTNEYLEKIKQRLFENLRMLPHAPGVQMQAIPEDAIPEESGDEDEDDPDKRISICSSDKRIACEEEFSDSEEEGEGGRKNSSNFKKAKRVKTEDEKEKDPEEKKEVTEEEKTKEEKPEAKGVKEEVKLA

SMILES	IC50 [1] [µM]	IC50 ([2]; U-251, 72 h) [µM]	IC50 ([3]; CAL-27, 72 h) [µM]	IC50 (HDAC1 [4]) [µM]	IC50 (HDAC6 [5]) [µM]	IC50 [1, 12] [µM]	IC50 [2, 13] [µM]	IC50 [3, 14] [µM]	IC50 (HDAC1 [4]; [15]) [µM]	IC50 (HDAC6 [5]; [16]) [µM]	also measured
O=C(CCCNC(=O)CCCc1ccc(N(CCCl)CCCl)cc1)NO [Compound 3 f]	46.1 ± 5.71	20.1 ± 2.41	8.67 ± 1.31	8.21 ± 0.183	4.6 ± 0.082						
O=C(CCCCCNC(=O)c1ncn2c(=O)n(CCCl)nnc12)NO [Compound 3 g]						262 ± 75.6	140 ± 17.8	29 ± 3.73	0.681 ± 0.015	0.094 ± 0.002	
Cn1nnc2c(C(=O)NCCCC(=O)NO)ncn2c1=O [Compound 3 d]						323 ± 107		97.1 ± 16.3	35.1 ± 5.32	4.99 ± 0.129	Antiproliferative Effect IC50 U251 ([2]; MTT assay, 72 h, n≥3, each in triplicate wells, n.e.: no effect up to 100 μM): n.e.
NC(=O)c1ncn2c(=O)n(CCCl)nnc12 [MTZ, mitozolomide, reference compound]						57.4 ± 9.51	84.5 ± 7.3	3.56 ± 0.29			
Cn1nnc2c(C(=O)NCc3ccc(/C=C/C(=O)NO)cc3)ncn2c1=O [Compound 3 l]						141 ± 20.7	97.8 ± 9.07	15.4 ± 1.61	0.146 ± 0.008	0.072 ± 0.008	γ-H2AX formation ([6]; Cal27 cells, IC50 (from MTT assay), 24 h): not different from control; γ-H2AX formation ([6]; Cal27 cells, fivefold IC50 (from MTT assay), 24 h): only weak DNA damage
O=C(/C=C/c1ccc(CNC(=O)CCCc2ccccc2)cc1)NO [Compound 3 o]						27.7 ± 6.52	23.9 ± 3.51	6.59 ± 0.44	0.156 ± 0.008	0.066 ± 0.001	IC50 (human recombinant HDAC3; [17]): 0.117 ± 0.02 µM; IC50 (human recombinant HDAC2; [18]): 0.194 ± 0.034 µM
O=C(CCCCCCNC(=O)c1ncn2c(=O)n(CCCl)nnc12)NO [Compound 3 j]						122 ± 56	48.2 ± 7.35	9.9 ± 1.24	0.143 ± 0.005	0.038 ± 0.004	
O=C(/C=C/c1ccc(CNC(=O)CCCc2ccc(N(CCCl)CCCl)cc2)cc1)NO [Compound 3 n]	19.8 ± 3.16	14.5 ± 1.59	2.68 ± 0.31	0.151 ± 0.021	0.062 ± 0.001						IC50 (human recombinant HDAC3): 0.187 ± 0.009 µM; IC50 (human recombinant HDAC2): 0.432 ± 0.015 µM; improved antiproliferative effect in comparison to parent compound CAB [3]: up to 10 fold; γ-H2AX formation [6]: significant increase in γ‐H2AX formation; also recorded: significantly more active than 3 l and 3 m; also recorded: significantly more effective than the sum of the effects of 3 o and CAB; also recorded: significantly greater DNA damage (γ‐H2AX assay) than 3 o; caspase 3/7 activation [7]: significantly more effective than the sum of the effects of 3 o and CAB; also recorded: significantly stronger than the sum of the effects of even 100 μM CAB and 30 μM 3 o; combination index (CI) [7]: 0,92 and 0,69 and 0,70; induction of apoptosis (subG1 nuclei) (Cal27 cells): more potent than 3 o, cisplatin, vorinostat, and CAB in inducing apoptosis; IC50 (HDAC8 recombinant enzyme): 4.04 ± 0.28 µM
O=C(NO)c1ccc(CNC(=O)c2ncn3c(=O)n(CCCl)nnc23)cc1 [Compound 3 b]						147 ± 19.7	44.5 ± 8.94	16.8 ± 3.62	0.394 ± 0.02	0.023 ± 0.002	
O=C(CCCCCCNC(=O)c1ccc(NC(=O)COCCOCCNC(=O)COc2cccc3c2C(=O)N(C2CCC(=O)NC2=O)C3=O)cc1)NO (stereo not shown) [PROTAC 4]									0.174 ± 0.009	0.027	acetylation of histone H3 [8]: significant hyperacetylation; IC50 (human recombinant HDAC3; [17]): 0.159 ± 0.031 µM; IC50 (human recombinant HDAC2; [18]): 0.248 ± 0.049 µM; acetylation of α-tubulin [9]: significant hyperacetylation; HDAC1 degradation (Western blot) (HDAC1 [10]): also HDAC1 in a concentration dependent manner; HDAC6 degradation (Western blot) (HDAC6 [11]): able to degrade especially HDAC6; IC50 (HDAC8 recombinant enzyme; read-out: HDAC Inhibition IC50 HDAC 8): 3.42 ± 0.32 µM
Cn1nnc2c(C(N)=O)ncn2c1=O [TMZ, temozolomide, reference compound]						144 ± 15.6	457 ± 57.3	56.8 ± 5.05			
O=C(CCCCCCNC(=O)CCCc1ccc(N(CCCl)CCCl)cc1)NO [Compound 3 k]	39.2 ± 7.16	27 ± 3.55	6.17 ± 0.51	0.244 ± 0.041	0.063 ± 0.001						
O=C(CCCc1ccc(N(CCCl)CCCl)cc1)NCc1ccc(C(=O)NO)cc1 [Compound 3 c]	23.9 ± 3.41	22 ± 3.09	6.89 ± 1.04	0.518 ± 0.065	0.032 ± 0.003						
O=C(CCCNC(=O)c1ncn2c(=O)n(CCCl)nnc12)NO [Compound 3 e]						413 ± 77.7	461 ± 89.9	87.8 ± 9.52	16.2 ± 0.07	2.37 ± 0.086	
O=C(O)CCCc1ccc(N(CCCl)CCCl)cc1 [CAB, chlorambucil, reference compound]	86.3 ± 17.5	48.7 ± 11.9	23.7 ± 2.26								
Cn1c(CCCCCCC(=O)NO)nc2cc(N(CCCl)CCCl)ccc21 [tinostamustine, reference compound]	8.32 ± 0.55	10.2 ± 0.62	2.94 ± 0.07	0.047 ± 0.003	0.011 ± 0.001						
Cn1nnc2c(C(=O)NCCCCCCC(=O)NO)ncn2c1=O [Compound 3 i]						166 ± 33.6	86.2 ± 13.1	10.2 ± 1.54	0.161 ± 0.006	0.031 ± 0.002	
O=C(CCCCCNC(=O)CCCc1ccc(N(CCCl)CCCl)cc1)NO [Compound 3 h]	43.9 ± 15.3	25.1 ± 3.27	7.5 ± 0.62	0.444 ± 0.053	0.121 ± 0.008						
